Test system: Macular Degeneration Animal Model
Experiment: Laser-induced macular degeneration animal model, fundus fluorescein angiography
Assay type: in vivo, Chinchilla rabbits
Settings: intravitreal injection 2000 μg, n=5
Description: Chinchilla rabbits (n=24, male) were raised at a temperature of 23±3° C., relative humidity of 55±15%, ventilation frequency of 10 to 20 times/hr, lighting time of 12 hours, and illuminance of 150 to 300 Lux. The environmental conditions such as temperature/humidity of the animal room, ventilation frequency and illuminance were measured regularly during the raising period. During the acclimation, administration, and observation periods, the rabbits were raised in a stainless-steel breeding box (W500×L800×H500 mm) at 1 animal per breeding box. The breeding boxes were cleaned every day and water bottles were exchanged every day. […]
On the 7th and 14th days after the start of administration in each group, a mydriatic agent (Mydriacyl® Eye Drops 1%) was instilled into the right eye of the rabbits, followed by anesthetizing. […] The efficacies were evaluated through retinal fundus fluorescein angiography. It was confirmed that the fluorescence intensity levels on days 7 and 14 in all macular degeneration-induced groups were higher than those in the normal control groups, G5 and G6 (p<0.001 or p<0.05).
The average fluorescence intensities of the vehicle-administered groups (G7 and G8) were set to 100% and the relative levels (%) of the fluorescence intensities measured in each animal were analyzed. […]

## Aflibercept [Comparative Example 2]
Day 7, relative to vehicle group G7 = 100%
  Fluorescence intensity at Day 7 (%), Mean: 93.345%
Day 14, relative to vehicle group G8 = 100%
  Fluorescence intensity at Day 14 (%), Mean: 69.403%

Source: US20250134849A1, “PHARMACEUTICAL COMPOSITION FOR PREVENTING OR TREATING OCULAR DISEASE COMPRISING ENAVOGLIFLOZIN” (DAEWOONG THERAPEUTICS INC., priority 2023, published 2025)
